Experiments:
[1] = Cytotoxicity against human MT4 cells assessed as reduction in cell viability incubated for 5 days by MTT assay; format: toxicity, cell-based; conditions: time 5 day
[2] = system: Human immunodeficiency virus 1; assay: Antiviral activity against wild-type HIV-1 IIIB infected in human MT4 cells assessed as protection against virus-induced cytopathic effect incubated for 5 days by MTT assay; format: functional, organism-based; conditions: Human immunodeficiency virus 1, IIIB, MT4, 120 h
[3] = target: Human immunodeficiency virus type 1 reverse transcriptase (Human immunodeficiency virus 1, UniProt Q72547); assay: Inhibition of recombinant wild-type HIV-1 reverse transcriptase incubated for 40 mins by fluorescence based assay
[4] = Selectivity index, ratio of CC50 for human MT4 cells to EC50 for wild-type HIV-1 IIIB infected in human MT4 cells; format: toxicity, cell-based; conditions: read-out: Ratio CC50/EC50
[5] = system: Human immunodeficiency virus 1; assay: Antiviral activity against HIV-1 harboring RT Y181C mutant infected in human MT4 cells assessed as protection against virus-induced cytopathic effect incubated for 5 days by MTT assay; format: functional, organism-based; conditions: Human immunodeficiency virus 1, MT4, 120 h
[6] = system: Human immunodeficiency virus 1; assay: Antiviral activity against HIV-1 harboring RT L100I mutant infected in human MT4 cells assessed as protection against virus-induced cytopathic effect incubated for 5 days by MTT assay; format: functional, organism-based; conditions: Human immunodeficiency virus 1, MT4, 120 h
[7] = system: Human immunodeficiency virus 1; assay: Antiviral activity against HIV-1 harboring RT E138K mutant infected in human MT4 cells assessed as protection against virus-induced cytopathic effect incubated for 5 days by MTT assay; format: functional, organism-based; conditions: Human immunodeficiency virus 1, MT4, 120 h
[8] = system: Human immunodeficiency virus 1; assay: Antiviral activity against HIV-1 harboring RT K103N mutant infected in human MT4 cells assessed as protection against virus-induced cytopathic effect incubated for 5 days by MTT assay; format: functional, organism-based; conditions: Human immunodeficiency virus 1, MT4, 120 h
[9] = system: Human immunodeficiency virus 1; assay: Antiviral activity against HIV-1 harboring RT Y188L mutant infected in human MT4 cells assessed as protection against virus-induced cytopathic effect incubated for 5 days by MTT assay; format: functional, organism-based; conditions: Human immunodeficiency virus 1, MT4, 120 h

CCOC(=O)c1cnc(NC2CCN(Cc3ccc(/C=C/C(=O)OC)cc3)CC2)nc1Oc1c(C)cc(-c2ccc(C#N)cc2)cc1C
CC50 at 120 h [1]: > 194000 nM | EC50 [2]: 79 nM | IC50 [3]: 535 nM | selectivity ratio [4]: > 2450

CCOC(=O)c1cnc(NC2CCN(Cc3ccccc3F)CC2)nc1Oc1c(C)cc(-c2ccc(C#N)cc2)cc1C
CC50 at 120 h [1]: 189000 nM | EC50 [2]: 47 nM | IC50 [3]: 769 nM | selectivity ratio [4]: 4040

CCOC(=O)c1cnc(NC2CCN(Cc3ccc(S(N)(=O)=O)cc3)CC2)nc1Oc1c(C)cc(-c2ccc(C#N)cc2)cc1C
CC50 at 120 h [1]: > 195000 nM | EC50 [5]: 202 nM | EC50 [6]: 212 nM | EC50 [7]: 83 nM | EC50 [2]: 35 nM | EC50 [8]: 46 nM | IC50 [3]: 736 nM | EC50 [9]: 538 nM | selectivity ratio [4]: > 5640

CCOC(=O)c1cnc(NC2CCN(Cc3ccc([N+](=O)[O-])cc3)CC2)nc1Oc1c(C)cc(-c2ccc(C#N)cc2)cc1C
CC50 at 120 h [1]: 164000 nM | EC50 [2]: 37 nM | IC50 [3]: 410 nM | selectivity ratio [4]: 4390

CCOC(=O)c1cnc(NC2CCN(Cc3ccc(C(N)=O)cc3)CC2)nc1Oc1c(C)cc(-c2ccc(C#N)cc2)cc1C
CC50 at 120 h [1]: 191000 nM | EC50 [5]: 48 nM | EC50 [6]: 45 nM | EC50 [7]: 50 nM | EC50 [2]: 11 nM | EC50 [8]: 17 nM | IC50 [3]: 596 nM | EC50 [9]: 94 nM | selectivity ratio [4]: 17400

CCOC(=O)c1cnc(NC2CCN(Cc3ccccn3)CC2)nc1Oc1c(C)cc(-c2ccc(C#N)cc2)cc1C
CC50 at 120 h [1]: > 222000 nM | EC50 [5]: 118 nM | EC50 [6]: 128 nM | EC50 [7]: 164 nM | EC50 [2]: 18 nM | EC50 [8]: 43 nM | IC50 [3]: 676 nM | EC50 [9]: 313 nM | selectivity ratio [4]: > 12200

CCOC(=O)c1cnc(NC2CCN(Cc3ccc(OC(F)(F)F)cc3)CC2)nc1Oc1c(C)cc(-c2ccc(C#N)cc2)cc1C
CC50 at 120 h [1]: 175000 nM | EC50 [2]: 189 nM | IC50 [3]: 2040 nM | selectivity ratio [4]: 923

CCOC(=O)c1cnc(NC2CCN(Cc3ccc(OC)cc3)CC2)nc1Oc1c(C)cc(-c2ccc(C#N)cc2)cc1C
CC50 at 120 h [1]: 125000 nM | EC50 [2]: 33 nM | IC50 [3]: 622 nM | selectivity ratio [4]: 3740

CCOC(=O)c1cnc(NC2CCN(Cc3ccc(B(O)O)cc3)CC2)nc1Oc1c(C)cc(-c2ccc(C#N)cc2)cc1C
CC50 at 120 h [1]: 20900 nM | EC50 [2]: 48 nM | IC50 [3]: 1300 nM | selectivity ratio [4]: 439

Cc1cn([C@H]2C[C@H](N=[N+]=[N-])[C@@H](CO)O2)c(=O)[nH]c1=O [ZIDOVUDINE]
CC50 at 120 h [1]: > 7490 nM | EC50 [5]: 21 nM | EC50 [6]: 8 nM | EC50 [7]: 39 nM | EC50 [2]: 34 nM | EC50 [8]: 20 nM | EC50 [9]: 16 nM | selectivity ratio [4]: > 223

CCOC(=O)c1cnc(NC2CCN(Cc3cccc(C(N)=O)c3)CC2)nc1Oc1c(C)cc(-c2ccc(C#N)cc2)cc1C
CC50 at 120 h [1]: 11500 nM | EC50 [5]: 76 nM | EC50 [6]: 66 nM | EC50 [7]: 68 nM | EC50 [2]: 15 nM | EC50 [8]: 44 nM | IC50 [3]: 669 nM | EC50 [9]: 342 nM | selectivity ratio [4]: 757

CCOC(=O)c1cnc(NC2CCN(Cc3ccc(CO)cc3)CC2)nc1Oc1c(C)cc(-c2ccc(C#N)cc2)cc1C
CC50 at 120 h [1]: 192000 nM | EC50 [2]: 40 nM | IC50 [3]: 514 nM | selectivity ratio [4]: 4740

CCOC(=O)c1cnc(NC2CCN(Cc3ccc(F)cc3)CC2)nc1Oc1c(C)cc(-c2ccc(C#N)cc2)cc1C
CC50 at 120 h [1]: 185000 nM | EC50 [5]: 158 nM | EC50 [6]: 257 nM | EC50 [7]: 154 nM | EC50 [2]: 44 nM | EC50 [8]: 115 nM | IC50 [3]: 582 nM | EC50 [9]: 790 nM | selectivity ratio [4]: 4180

CCOC(=O)c1cnc(NC2CCN(Cc3ccc(C#N)cc3)CC2)nc1Oc1c(C)cc(-c2ccc(C#N)cc2)cc1C
CC50 at 120 h [1]: 131000 nM | EC50 [2]: 217 nM | IC50 [3]: 782 nM | selectivity ratio [4]: 604

CCOC(=O)c1cnc(NC2CCN(Cc3ccc(S(C)(=O)=O)cc3)CC2)nc1Oc1c(C)cc(-c2ccc(C#N)cc2)cc1C
CC50 at 120 h [1]: 27900 nM | EC50 [5]: 51 nM | EC50 [6]: 57 nM | EC50 [7]: 105 nM | EC50 [2]: 13 nM | EC50 [8]: 13 nM | IC50 [3]: 598 nM | EC50 [9]: 67 nM | selectivity ratio [4]: 2290

CCOC(=O)c1cnc(NC2CCN(Cc3ccc(Cl)cc3)CC2)nc1Oc1c(C)cc(-c2ccc(C#N)cc2)cc1C
CC50 at 120 h [1]: 141000 nM | EC50 [2]: 194 nM | IC50 [3]: 314 nM | selectivity ratio [4]: 728

CCOC(=O)c1cnc(NC2CCN(Cc3ccc(F)cc3F)CC2)nc1Oc1c(C)cc(-c2ccc(C#N)cc2)cc1C
CC50 at 120 h [1]: 176000 nM | EC50 [2]: 54 nM | IC50 [3]: 634 nM | selectivity ratio [4]: 3280

CCOC(=O)c1cnc(NC2CCN(Cc3ccncc3)CC2)nc1Oc1c(C)cc(-c2ccc(C#N)cc2)cc1C
CC50 at 120 h [1]: 60000 nM | EC50 [5]: 66 nM | EC50 [6]: 73 nM | EC50 [7]: 73 nM | EC50 [2]: 16 nM | EC50 [8]: 13 nM | IC50 [3]: 527 nM | EC50 [9]: 87 nM | selectivity ratio [4]: 3720

O=C1Nc2ccc(Cl)cc2[C@@](C#CC2CC2)(C(F)(F)F)O1 [EFAVIRENZ]
CC50 at 120 h [1]: > 6350 nM | EC50 [5]: 8 nM | EC50 [6]: 39 nM | EC50 [7]: 8 nM | EC50 [8]: 77 nM

CCOC(=O)c1cnc(NC2CCN(Cc3ccc(C(F)(F)F)cc3)CC2)nc1Oc1c(C)cc(-c2ccc(C#N)cc2)cc1C
CC50 at 120 h [1]: > 199000 nM | EC50 [2]: 421 nM | IC50 [3]: 990 nM | selectivity ratio [4]: > 472

Cc1ccnc2c1NC(=O)c1cccnc1N2C1CC1 [NEVIRAPINE]
CC50 at 120 h [1]: > 15000 nM | EC50 [6]: 2000 nM | EC50 [7]: 153 nM | EC50 [9]: > 10000 nM

CCOC(=O)c1cnc(NC2CCN(Cc3cccnc3)CC2)nc1Oc1c(C)cc(-c2ccc(C#N)cc2)cc1C
CC50 at 120 h [1]: > 222000 nM | EC50 [5]: 99 nM | EC50 [6]: 272 nM | EC50 [7]: 70 nM | EC50 [2]: 35 nM | EC50 [8]: 53 nM | IC50 [3]: 718 nM | EC50 [9]: 431 nM | selectivity ratio [4]: > 6430

CCOC(=O)c1cnc(NC2CCN(Cc3ccc(F)c(F)c3)CC2)nc1Oc1c(C)cc(-c2ccc(C#N)cc2)cc1C
CC50 at 120 h [1]: 194000 nM | EC50 [2]: 201 nM | IC50 [3]: 522 nM | selectivity ratio [4]: 967

CCOC(=O)c1cnc(NC2CCN(Cc3cccc(C(=O)NC)c3)CC2)nc1Oc1c(C)cc(-c2ccc(C#N)cc2)cc1C
CC50 at 120 h [1]: 20400 nM | EC50 [5]: 67 nM | EC50 [6]: 74 nM | EC50 [7]: 51 nM | EC50 [2]: 37 nM | EC50 [8]: 48 nM | IC50 [3]: 686 nM | EC50 [9]: 246 nM | selectivity ratio [4]: 556

CCOC(=O)c1cnc(NC2CCN(Cc3ccc(C)cc3)CC2)nc1Oc1c(C)cc(-c2ccc(C#N)cc2)cc1C
CC50 at 120 h [1]: 178000 nM | EC50 [2]: 35 nM | IC50 [3]: 890 nM | selectivity ratio [4]: 5080

CCOC(=O)c1cnc(N2CCN(Cc3cccc(C(N)=O)c3)CC2)nc1Oc1c(C)cc(-c2ccc(C#N)cc2)cc1C
CC50 at 120 h [1]: 14800 nM | EC50 [2]: 3360 nM | selectivity ratio [4]: 4

CCOC(=O)c1cnc(NC2CCN(Cc3ccccc3C#N)CC2)nc1Oc1c(C)cc(-c2ccc(C#N)cc2)cc1C
CC50 at 120 h [1]: 196000 nM | EC50 [2]: 50 nM | IC50 [3]: 327 nM | selectivity ratio [4]: 3940
